From patent US10100061B2, “Oxazepine compound and agricultural/horticultural insecticide containing said compound as active ingredient, and method for using the same” (NIHON NOHYAKU CO., LTD., priority 2014, dated 2018)

Columns and labels:
[1] = test system: Small Brown Planthopper (Laodelphax Striatellus); assay: Test of insecticidal efficacy against small brown planthopper (Test Example 2); type: in vivo; details: 500 ppm, rice plants soaked 30 seconds, third-instar larvae, eight days after inoculation; criteria same as in Test Example 1
Description: Test of Insecticidal Efficacy Against Small Brown Planthopper (Laodelphax Striatellus)

[2] = test system: Green Peach Aphid (Myzus Persicae); assay: Test of preventive value against green peach aphid (Test Example 1); type: in vivo; details: 500 ppm, sprayed over stems and leaves of potted Chinese cabbages, sixth day after spraying
Description: Test of Preventive Value Against Green Peach Aphid (Myzus Persicae)
Chinese cabbages were planted in plastic pots, each with a size of 8 cm in diameter and 8 cm in height, after which green peach aphids were propagated and the number of parasitic insects was examined in each pot. An oxazepine compound or salt thereof expressed by General Formula (I) according to the present invention was dispersed in water and the dispersion was diluted to 500 ppm in the form of a reagent, after which the reagent was sprayed over stems and leaves of potted Chinese cabbages and let dry under wind, and the pots were kept in a greenhouse, and on the sixth day after the reagent was sprayed, the number of green peach aphids living parasitically on each Chinese cabbage was examined and the preventive value was calculated based on the formula below, and judgment was made according to the criteria below. Preventive value=100−{(T×Ca)/(Ta×C)}×100 [Mathematical Formula 1] • Ta: Number of parasitic insects inside the treatment area before spraying • T: Number of parasitic insects inside the treatment area after spraying • Ca: Number of parasitic insects inside the non-treatment area before spraying • C: Number of parasitic insects inside the non-treatment area after spraying Judgment Criteria • A - - - Preventive value: 100% • B - - - Preventive value: 99%˜90% • C - - - Preventive value: 89%˜80% • D - - - Preventive value: 79%˜50%

SMILES | Corrected insect mortality, judgment [1] | Preventive value, judgment [2]
CCCCCCCCN1C(=O)c2nn(-c3cccnc3)cc2Oc2ccccc21 [1-53] | A to D | A to D
C=CCN1C(=O)c2nn(-c3cccnc3)cc2Oc2ccccc21 [1-55] | A to D | A to D
COc1ccc(CN2C(=O)c3nn(-c4cccnc4)cc3Oc3ccccc32)cc1 [1-56] | A to D | A to D
O=C1c2nn(-c3cccnc3)cc2Oc2ccccc2N1Cc1ccccn1 [1-57] | A to D | A to D
O=C1c2nn(-c3cccnc3)cc2Oc2ccccc2N1Cc1cccnc1 [1-58] | A to D | A to D
O=C1c2nn(-c3cccnc3)cc2Oc2ccccc2N1CCc1ccccc1 [1-62] | A to D | A to D
COCN1C(=O)c2nn(-c3cccnc3)cc2Oc2ccccc21 [1-67] | A to D | A to D
COCCN1C(=O)c2nn(-c3cccnc3)cc2Oc2ccccc21 [1-68] | A to D | A to D
O=C1c2nn(-c3cccnc3)cc2Oc2ccccc2N1CCN1CCCCC1 [1-70] | A to D | A to D
O=C1c2nn(-c3cccnc3)cc2Oc2ccccc2N1CCN1CCOCC1 [1-71] | A to D | A to D
CC(=O)N1C(=O)c2nn(-c3cccnc3)cc2Oc2ccccc21 [1-73] | A to D | A to D
COC(=O)CN1C(=O)c2nn(-c3cccnc3)cc2Oc2ccccc21 [1-74] | A to D | A to D
CC(C)(C)OC(=O)CN1C(=O)c2nn(-c3cccnc3)cc2Oc2ccccc21 [1-75] | A to D | A to D
O=C(CN1C(=O)c2nn(-c3cccnc3)cc2Oc2ccccc21)c1ccc(Cl)cc1 [1-76] | A to D | A to D
CC(C#N)N1C(=O)c2nn(-c3cccnc3)cc2Oc2ccccc21 (stereo not shown) [1-77] | A to D | A to D
CN1C(=O)c2nn(-c3cncnc3)cc2Oc2ccccc21 [1-79] | A to D | A to D
CN1C(=O)c2nn(-c3cncc(F)c3)cc2Oc2cc(F)ccc21 [1-80] | A to D | A to D
C#CCN1C(=O)c2nn(-c3cncc(F)c3)cc2Oc2cc(F)ccc21 [1-81] | A to D | A to D
S=C1Nc2ccccc2Oc2cn(-c3cccnc3)nc21 [2-1] | A to D | A to D
Fc1ccc2c(c1)NC(=S)c1nn(-c3cccnc3)cc1O2 [2-5] | A to D | A to D

SMILES | Corrected insect mortality, judgment [1] | Preventive value, judgment [2]
c1cncc(-n2cc3c(n2)CNc2ccccc2O3)c1 [3-1] | A to D | A to D
CN1C(=O)c2nn(-c3cccnc3)cc2Oc2ncc(C(F)(F)F)cc21 [4-10] | A to D | A to D
CN1C(=O)c2nn(-c3cccnc3)cc2Oc2cnccc21 [5-2] | A to D | A to D
O=C1NC=COc2cn(-c3cccnc3)nc21 [7-1] | A to D | A to D
CN1C=COc2cn(-c3cccnc3)nc2C1=O [7-2] | A to D | A to D
CSCN1C(=O)c2nn(-c3cccnc3)cc2Oc2ccccc21 [8-2] | A to D | A to D
CS(=O)(=O)CN1C(=O)c2nn(-c3cccnc3)cc2Oc2ccccc21 [8-4] | A to D | A to D
COC(CN1C(=O)c2nn(-c3cccnc3)cc2Oc2ccccc21)OC [8-10] | A to D | A to D
O=CN1C(=O)c2nn(-c3cccnc3)cc2Oc2ccccc21 [8-12] | A to D | A to D
COC(=O)N1C(=O)c2nn(-c3cccnc3)cc2Oc2ccccc21 [8-13] | A to D | A to D
O=C1c2nn(-c3cccnc3)cc2Oc2ccccc2N1CC(F)(F)C(F)(F)F [8-20] | A to D | A to D
CSCN1C(=O)c2nn(-c3cccnc3)cc2Oc2cc(F)ccc21 [8-24] | A to D | A to D
COCN1C(=O)c2nn(-c3cccnc3)cc2Oc2cc(F)ccc21 [8-25] | A to D | A to D
CCOCN1C(=O)c2nn(-c3cccnc3)cc2Oc2cc(F)ccc21 [8-26] | A to D | A to D
O=C1OCCC1N1C(=O)c2nn(-c3cccnc3)cc2Oc2cc(F)ccc21 (stereo not shown) [8-31] | A to D | A to D
CC(C(=O)OC(C)(C)C)N1C(=O)c2nn(-c3cccnc3)cc2Oc2cc(F)ccc21 (stereo not shown) [8-32] | A to D | A to D
O=C1c2nn(-c3cccnc3)cc2Oc2cc(F)ccc2N1CCCCBr [8-34] | A to D | A to D
C=CCN1C(=O)c2nn(-c3cccnc3)cc2Oc2ccc(F)cc21 [8-35] | A to D | A to D
CCCCCCCCCCCCN1C(=O)c2nn(-c3cccnc3)cc2Oc2ccc(F)cc21 [8-37] | A to D | A to D
O=C1c2nn(-c3cccnc3)cc2Oc2ccc(F)cc2N1CCCl [8-38] | A to D | A to D

SMILES | Corrected insect mortality, judgment [1] | Preventive value, judgment [2]
O=C1c2nn(-c3cccnc3)cc2Oc2ccc(F)cc2N1CCCCBr [8-40] | A to D | A to D
O=C1c2nn(-c3cccnc3)cc2Oc2ccc(F)cc2N1CC1CCCO1 (stereo not shown) [8-41] | A to D | A to D
COC(CN1C(=O)c2nn(-c3cccnc3)cc2Oc2ccc(F)cc21)OC [8-42] | A to D | A to D
COCN1C(=O)c2nn(-c3cccnc3)cc2Oc2ccc(F)cc21 [8-45] | A to D | A to D
CCOCN1C(=O)c2nn(-c3cccnc3)cc2Oc2ccc(F)cc21 [8-46] | A to D | A to D
CS(=O)(=O)CN1C(=O)c2nn(-c3cccnc3)cc2Oc2ccc(F)cc21 [8-49] | A to D | A to D
O=C1Nc2cc(Cl)ccc2Oc2cn(-c3cccnc3)nc21 [8-54] | A to D | A to D
C#CCN1C(=O)c2nn(-c3cccnc3)cc2Oc2ccc(Cl)cc21 [8-56] | A to D | A to D
O=C1Nc2cc(Br)ccc2Oc2cn(-c3cccnc3)nc21 [8-62] | A to D | A to D
CN1C(=O)c2nn(-c3ccc[n+]([O-])c3)cc2Oc2ccccc21 [9-1] | A to D | A to D
O=C1Nc2ccccc2Oc2c1nn(-c1cccnc1)c2F [9-3] | A to D | A to D
ClC1=Nc2ccccc2Oc2cn(-c3cccnc3)nc21 [11-1] | A to D | A to D
NC1=Nc2ccccc2Oc2cn(-c3cccnc3)nc21 [11-5] | A to D | A to D
c1cncc(-n2cc3c(n2)C(NC2CC2)=Nc2ccccc2O3)c1 [11-7] | A to D | A to D
ONC1=Nc2ccccc2Oc2cn(-c3cccnc3)nc21 [11-9] | A to D | A to D
CN(C)C1=Nc2ccccc2Oc2cn(-c3cccnc3)nc21 [11-10] | A to D | A to D
C=CCN(CC=C)C1=Nc2cc(F)ccc2Oc2cn(-c3cccnc3)nc21 [11-11] | A to D | A to D
CSCCOC1=Nc2ccc(C(F)(C(F)(F)F)C(F)(F)F)cc2Oc2cn(-c3cccnc3)nc21 [11-17] | A to D | A to D
CSC1=Nc2cc(F)ccc2Oc2cn(-c3cccnc3)nc21 [11-18] | A to D | A to D
